“And” between values parts separate entries of the source, which are not always exact repeats. Equal entries are not always repeated. Inconclusive results and toxic doses are left out. Cut-off read from the data, not from the text of the source: active = T/C of 150% or more; inactive = T/C below 125%.
Tested on: L1210 leukemia ip in BDF1 mice, survival T/C
Assay: NCI In Vivo Anticancer Drug Screen. Data for tumor model L1210 Leukemia (intraperitoneal) in B6D2F1 (BDF1) mice
Settings: endpoint: mean survival time, higher = longer survival
Procedure, shortened: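 Mice bearing the transplanted tumor received compound or vehicle. Survival of the treated group was divided by that of the vehicle-treated control group to give the ratio.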

[1] = dose: 100.0 mg/kg/injection, schedule: Q04DX003 (ip), vehicle: Klucel (hydroxypropylcellulose) (HPC)
[2] = dose: 200.0 mg/kg/injection, schedule: Q04DX003 (ip), vehicle: Klucel (hydroxypropylcellulose) (HPC)
[3] = dose: 100.0 mg/kg/injection, schedule: Q01DX001 (ip), vehicle: saline
[4] = dose: 200.0 mg/kg/injection, schedule: Q01DX001 (ip), vehicle: saline
[5] = dose: 400.0 mg/kg/injection, schedule: Q01DX001 (ip), vehicle: saline
[6] = dose: 100.0 mg/kg/injection, schedule: Q01DX001 (ip), vehicle: Klucel (hydroxypropylcellulose) (HPC)
[7] = dose: 200.0 mg/kg/injection, schedule: Q01DX001 (ip), vehicle: Klucel (hydroxypropylcellulose) (HPC)
[8] = dose: 100.0 mg/kg/injection, schedule: Q01DX009 (ip), vehicle: Klucel (hydroxypropylcellulose) (HPC)
[9] = dose: 200.0 mg/kg/injection, schedule: Q01DX009 (ip), vehicle: Klucel (hydroxypropylcellulose) (HPC)
[10] = dose: 50.0 mg/kg/injection, schedule: Q04DX003 (ip), vehicle: Klucel (hydroxypropylcellulose) (HPC)
[11] = dose: 100.0 mg/kg/injection, schedule: Q04DX002 (ip), vehicle: Klucel (hydroxypropylcellulose) (HPC)
[12] = dose: 200.0 mg/kg/injection, schedule: Q04DX002 (ip), vehicle: Klucel (hydroxypropylcellulose) (HPC)
[13] = dose: 400.0 mg/kg/injection, schedule: Q04DX002 (ip), vehicle: Klucel (hydroxypropylcellulose) (HPC)

Measured: T/C

O=c1[nH]ncc2c1[nH]c1cccc(Cl)c12
inactive: dose: 200.0 mg/kg/injection, schedule: Q04DX003 (ip), vehicle: carboxymethylcellulose (CMC) 88 % of control | dose: 400.0 mg/kg/injection, schedule: Q04DX003 (ip), vehicle: carboxymethylcellulose (CMC) 92 % of control

C/C=C(/C(=O)O)c1ccccc1
inactive: [1] 109 % of control | [2] 88 % of control | dose: 400.0 mg/kg/injection, schedule: Q04DX003 (ip), vehicle: Klucel (hydroxypropylcellulose) (HPC) 94 % of control

CCC(C)N(C)N=Nc1ccc(C(N)=O)cc1 (stereo unspecified)
inactive: dose: 178.0 mg/kg/injection, schedule: Q01DX001 (ip), vehicle: other 104 % of control | dose: 267.0 mg/kg/injection, schedule: Q01DX001 (ip), vehicle: other 112 % of control

[Cl][Pb]([Cl])([c]1ccccc1)[c]1ccccc1
inactive: dose: 12.5 mg/kg/injection, schedule: Q04DX002 (ip), vehicle: Klucel (hydroxypropylcellulose) (HPC) 88 % of control | dose: 25.0 mg/kg/injection, schedule: Q04DX002 (ip), vehicle: Klucel (hydroxypropylcellulose) (HPC) 88 % of control | dose: 50.0 mg/kg/injection, schedule: Q04DX002 (ip), vehicle: Klucel (hydroxypropylcellulose) (HPC) 91 % of control

O=C(O)CCC1NC(=O)NC1=O (stereo unspecified)
inactive: [3] 96 % of control | [4] 96 % of control | [5] 91 % of control

Cc1ccc(OCc2c(COc3ccc(Cl)cc3)sc3ccc(Cl)cc23)cc1
inactive: dose: 12.5 mg/kg/injection, schedule: Q01DX009 (ip), vehicle: saline with Tween-80 97 % of control | dose: 25.0 mg/kg/injection, schedule: Q01DX009 (ip), vehicle: saline with Tween-80 95 % of control | dose: 25.0 mg/kg/injection, schedule: Q04DX003 (ip), vehicle: saline with Tween-80 87 % of control | dose: 50.0 mg/kg/injection, schedule: Q01DX009 (ip), vehicle: saline with Tween-80 101 % of control | dose: 50.0 mg/kg/injection, schedule: Q04DX003 (ip), vehicle: saline with Tween-80 87 % of control

COc1ccccc1-n1c(O)c(N=Nc2ccc(Cl)cc2)c(=O)n(-c2ccc(C)cc2)c1=S
inactive: [6] 98 % of control | [7] 96 % of control | dose: 400.0 mg/kg/injection, schedule: Q01DX001 (ip), vehicle: Klucel (hydroxypropylcellulose) (HPC) 105 % of control

CN(CCC#N)c1ccc(C=C(C#N)C#N)cc1
inactive: [8] 92 % of control | [9] 95 % of control | dose: 400.0 mg/kg/injection, schedule: Q01DX009 (ip), vehicle: Klucel (hydroxypropylcellulose) (HPC) 97 % of control

CCC(C)Nc1ccccc1 (stereo unspecified)
inactive: dose: 50.0 mg/kg/injection, schedule: Q01DX009 (ip), vehicle: Klucel (hydroxypropylcellulose) (HPC) 102 % of control and 104 % of control | [10] 101 % of control | [8] 102 % of control and 103 % of control | [1] 101 % of control | [9] 94 % of control and 87 % of control | [2] 97 % of control

CC(C)c1cc(C(C)C)n2nc(N)nc2n1
inactive: dose: 100.0 mg/kg/injection, schedule: Q01DX009 (ip), vehicle: saline with Tween-80 96 % of control | dose: 200.0 mg/kg/injection, schedule: Q01DX009 (ip), vehicle: saline with Tween-80 102 % of control | dose: 400.0 mg/kg/injection, schedule: Q01DX009 (ip), vehicle: saline with Tween-80 105 % of control

O=C(O)c1cc(S(=O)(=O)O)cc([N+](=O)[O-])c1O
inactive: [11] 96 % of control | [12] 104 % of control | [13] 96 % of control

CC1CCN(P(c2ccccc2)N2CCC(C)CC2)CC1
inactive: [11] 97 % of control | [12] 97 % of control | [13] 100 % of control

O=C1C(c2c[nH]c3ccccc23)=Nc2ccc(Br)cc21
inactive: dose: 50.0 mg/kg/injection, schedule: Q01DX001 (ip), vehicle: saline 104 % of control | [3] 104 % of control | [4] 106 % of control

Nc1cccc2cc3ccccc3nc12
inactive: dose: 25.0 mg/kg/injection, schedule: Q04DX003 (ip), vehicle: Klucel (hydroxypropylcellulose) (HPC) 102 % of control | [10] 92 % of control | [1] 86 % of control

CC(=O)[O][Hg][CH]1CCCCC1O (stereo unspecified)
inactive: dose: 5.0 mg/kg/injection, schedule: Q01DX001 (ip), vehicle: saline 103 % of control | dose: 10.0 mg/kg/injection, schedule: Q01DX001 (ip), vehicle: saline 95 % of control | dose: 12.3 mg/kg/injection, schedule: Q01DX009 (ip), vehicle: saline with Tween-80 106 % of control | dose: 20.0 mg/kg/injection, schedule: Q01DX001 (ip), vehicle: saline 97 % of control | dose: 40.0 mg/kg/injection, schedule: Q01DX001 (ip), vehicle: saline 95 % of control | dose: 80.0 mg/kg/injection, schedule: Q01DX001 (ip), vehicle: saline 102 % of control

O=C(O)C(Oc1ccc(Cl)cc1Cl)C(=O)O
inactive: dose: 100.0 mg/kg/injection, schedule: Q04DX002 (ip), vehicle: other 93 % of control | dose: 200.0 mg/kg/injection, schedule: Q04DX002 (ip), vehicle: other 97 % of control | dose: 400.0 mg/kg/injection, schedule: Q04DX002 (ip), vehicle: other 95 % of control

C/C(C/C=N/N=C(N)N)=N\N=C(N)N
inactive: dose: 15.0 mg/kg/injection, schedule: Q01DX Z (ip), vehicle: water 98 % of control | dose: 30.0 mg/kg/injection, schedule: Q01DX Z (ip), vehicle: water 96 % of control | dose: 60.0 mg/kg/injection, schedule: Q01DX Z (ip), vehicle: water 102 % of control | dose: 120.0 mg/kg/injection, schedule: Q01DX Z (ip), vehicle: water 102 % of control | dose: 120.0 mg/kg/injection, schedule: Q01DX Z (oral), vehicle: water 103 % of control | dose: 240.0 mg/kg/injection, schedule: Q01DX Z (oral), vehicle: water 100 % of control | dose: 480.0 mg/kg/injection, schedule: Q01DX Z (oral), vehicle: water 108 % of control | dose: 960.0 mg/kg/injection, schedule: Q01DX Z (oral), vehicle: water 102 % of control

COc1ccc(CC(C(=O)O)c2ccccc2C(=O)O)cc1OC (stereo unspecified)
inactive: [3] 101 % of control | [4] 97 % of control | [5] 97 % of control

CC1=C(C)CP(C)(=O)C1
inactive: dose: 100.0 mg/kg/injection, schedule: Q04DX003 (ip), vehicle: saline with Tween-80 93 % of control | dose: 200.0 mg/kg/injection, schedule: Q04DX003 (ip), vehicle: saline with Tween-80 91 % of control | dose: 400.0 mg/kg/injection, schedule: Q04DX003 (ip), vehicle: saline with Tween-80 86 % of control

N=C(N)N=Nc1c(O)[nH]c(=O)[nH]c1=O
inactive: dose: 15.0 mg/kg/injection, schedule: Q01DX Z (ip), vehicle: carboxymethylcellulose (CMC) 98 % of control | dose: 30.0 mg/kg/injection, schedule: Q01DX Z (ip), vehicle: carboxymethylcellulose (CMC) 98 % of control | dose: 60.0 mg/kg/injection, schedule: Q01DX Z (ip), vehicle: carboxymethylcellulose (CMC) 93 % of control | dose: 60.0 mg/kg/injection, schedule: Q01DX Z (oral), vehicle: carboxymethylcellulose (CMC) 110 % of control | dose: 120.0 mg/kg/injection, schedule: Q01DX Z (ip), vehicle: carboxymethylcellulose (CMC) 97 % of control | dose: 120.0 mg/kg/injection, schedule: Q01DX Z (oral), vehicle: carboxymethylcellulose (CMC) 108 % of control | dose: 240.0 mg/kg/injection, schedule: Q01DX Z (oral), vehicle: carboxymethylcellulose (CMC) 104 % of control | dose: 480.0 mg/kg/injection, schedule: Q01DX Z (oral), vehicle: carboxymethylcellulose (CMC) 108 % of control

O=CCC1C=CCC1 (stereo unspecified)
inactive: dose: 75.0 mg/kg/injection, schedule: Q01DX001 (ip), vehicle: carboxymethylcellulose (CMC) 101 % of control | dose: 150.0 mg/kg/injection, schedule: Q01DX001 (ip), vehicle: carboxymethylcellulose (CMC) 103 % of control

COc1ccc(-n2c(O)c(N=Nc3ccc(Br)cc3)c(=O)n(-c3ccccc3)c2=S)cc1
inactive: dose: 50.0 mg/kg/injection, schedule: Q01DX001 (ip), vehicle: Klucel (hydroxypropylcellulose) (HPC) 102 % of control | [6] 104 % of control | [7] 100 % of control
